Results as given in US20120129875A1, “SUBSTITUTED QUINAZOLINES AS FUNGICIDES” (SYNGENTA CROP PROTECTION, LLC, priority 2009, published 2012).

Columns and labels:
Assay type in all cases: in vivo
[1] = system: Pyrenophora teres (Helminthosporium teres); assay: Pyrenophora teres (Helminthosporium teres) / barley / preventative (net blotch on barley); details: barley plants cv. Regina, inoculated 2 days after application, vs untreated control, read-out: disease control
Protocol: Pyrenophora teres (Helminthosporium teres)/Barley/Preventative (Net Blotch on Barley) 1-week old barley plants cv. Regina are treated with the formulated test compound in a spray chamber. The test plants are inoculated by spraying them with a spore suspension 2 days after application. The inoculated test plants are incubated at 20° C. and 95% rh and the percentage leaf area covered by disease is assessed when an appropriate level of disease appears on untreated check plants (5-7 days after application).

[2] = system: Botryotinia fuckeliana (Botrytis cinerea); assay: Botryotinia fuckeliana (Botrytis cinerea) / tomato / preventative (Botrytis on tomato); details: tomato plants cv. Roter Gnom, inoculated two days after application, vs untreated control, read-out: disease control
Protocol: (§1) Botryotinia fuckeliana (Botrytis cinerea)/Tomato/Preventative (Botrytis on Tomato) 4-week old tomato plants cv. Roter Gnom are treated with the formulated test compound in a spray chamber. The test plants are inoculated by spraying them with a spore suspension two days after application. The inoculated test plants are incubated at 20° C. and 95% rh in a greenhouse and the percentage leaf area covered by disease is assessed when an appropriate level of disease appears on untreated check plants (5-6 days after application).

[3] = system: Alternaria solani; assay: Alternaria solani / tomato / preventative (Alternaria on tomato); details: tomato plants cv. Roter Gnom, inoculated two days after application, vs untreated control, read-out: disease control
Protocol: as §1, with “Alternaria solani/Tomato/Preventative (Alternaria” for “Botryotinia fuckeliana (Botrytis cinerea)/Tomato/Preventative (Botrytis”, “22/18°” for “20°”, “C. (day/night)” for “C.”, “(5-7” for “(5-6”

[4] = system: Phytophthora infestans; assay: whole plant or invertebrate; details: in Solanum tuberosum, read-out: disease control
[5] = system: Plasmopara viticola; assay: Plasmopara viticola / grape / preventative (grape downy mildew); details: grape seedlings cv. Gutedel, inoculated one day after application, vs untreated control, read-out: disease control
Protocol: Plasmopara viticola/Grape/Preventative (Grape Downy Mildew)
5-week old grape seedlings cv. Gutedel are treated with the formulated test compound in a spray chamber. The test plants are inoculated by spraying a sporangia suspension on their lower leaf surface one day after application. The inoculated test plants are incubated at 22° C. and 100% rh in a greenhouse and the percentage leaf area covered by disease is assessed when an appropriate level of disease appears on untreated check plants (6-8 days after application).

[6] = system: Erysiphe necator (Uncinula necator); assay: Erysiphe necator (Uncinula necator) / grape / preventative (powdery mildew on grape); details: grape seedlings cv. Gutedel, inoculated 1 day after application, vs untreated control, read-out: disease control
Protocol: Erysiphe necator (Uncinula necator)/Grape/Preventative (Powdery Mildew on Grape) 5-week old grape seedlings cv. Gutedel are treated with the formulated test compound in a spray chamber. The test plants are inoculated by shaking plants infected with grape powdery mildew above them 1 day after application. The inoculated test plants are incubated at 24/22° C. (day/night) and 70% rh under a light regime of 14/10 h (light/dark) and the percentage leaf area covered by disease is assessed when an appropriate level of disease appears on untreated check plants (7-9 days after application).

[7] = system: Mycosphaerella arachidis (Cercospora arachidicola); assay: Mycosphaerella arachidis (Cercospora arachidicola) / peanut / preventative; details: peanut plants cv. Georgia Green, inoculated one day after application, vs untreated control, read-out: disease control
Protocol: Mycosphaerella arachidis (Cercospora arachidicola)/Peanut/Preventative 3-week old peanut plants cv. Georgia Green are treated with the formulated test compound in a spray chamber. The test plants are inoculated by spraying them with a spore suspension on their lower leaf surface one day after application. After an incubation period of 4 days under a plastic hood at 23° C. and 100% rh, the test plants are kept at 23° C./20° C. (day/night) and 70% rh in a greenhouse. The percentage leaf area covered by disease is assessed when an appropriate level of disease appears on untreated check plants (12-14 days after application).

[8] = system: Mycosphaerella graminicola (Septoria tritici); assay: Mycosphaerella graminicola (Septoria tritici) / wheat / preventative (Septoria tritici leaf spot on wheat); details: Zymoseptoria tritici, wheat plants cv. Riband, inoculated one day after application, vs untreated control, read-out: disease control
Protocol: Mycosphaerella graminicola (Septoria tritici)/Wheat/Preventative (Septoria tritici Leaf Spot on Wheat) 2-week old wheat plants cv. Riband are treated with the formulated test compound in a spray chamber. The test plants are inoculated by spraying a spore suspension on them one day after application. After an incubation period of 1 day at 22° C./21° C. (day/night) and 95% rh, the test plants are kept at 22° C./21° C. (day/night) and 70% rh in a greenhouse. The percentage leaf area covered by disease is assessed when an appropriate level of disease appears on untreated check plants (16-19 days after application).

[9] = system: Phaeosphaeria nodorum (Septoria nodorum); assay: Phaeosphaeria nodorum (Septoria nodorum) / wheat / leaf disc preventative (glume blotch); details: Parastagonospora nodorum, foliar, wheat leaf segments cv. Kanzler on agar, inoculated 2 days after application, vs untreated control, read-out: disease control
Summary of the method: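 Wheat cv. Kanzler leaf segments on agar sprayed with formulated compound in water, inoculated with spore suspension 2 days later. Incubated at 20° C., 75% rh, 12 h light/12 h dark; percent disease control versus untreated scored when untreated discs show damage (5-7 days after application).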

Measured: pest or weed control at 200 ppm

Cc1ccc(-c2ncc3ccccc3n2)nc1-c1ccc(F)cc1 [3/72]
≥ 80%: [1] | [2] | [3] | [4] | [5]

c1ccc(Cc2cccc(-c3ncc4ccccc4n3)n2)cc1 [6/17, 2-(6-benzylpyridin-2-yl)-quinazoline]
not listed: [8] | [9]
≥ 80%: all other assays above

Cc1ccc(-c2ncc3ccccc3n2)nc1-c1cc(F)cc(F)c1 [3/90]
not listed: [9]
≥ 80%: all other assays above

Cc1ccccc1-c1nc(-c2ncc3ccccc3n2)ccc1C [3/76]
not listed: [6] | [9]
≥ 80%: all other assays above

COc1ccc(-c2nc(-c3ncc4ccccc4n3)ccc2C)cc1F [3/92, 2-[6-(3-fluoro-4-methoxy-phenyl)-5-methylpyridin-2-yl]-quinazoline]
not listed: [9]
≥ 80%: all other assays above

Cc1cc(-c2nc(-c3ncc4ccccc4n3)ccc2C)ccc1F [3/85]
not listed: [9]
≥ 80%: all other assays above

Cc1ccc(-c2ncc3ccccc3n2)nc1Oc1ccccc1 [5/18]
≥ 80%: [1] | [2] | [3] | [4] | [5]

Cc1cccc(-c2nc(-c3ncc4ccccc4n3)ccc2C)c1 [3/75]
not listed: [1] | [9]
≥ 80%: all other assays above

Clc1cccc(Cc2cccc(-c3ncc4ccccc4n3)n2)c1 [6/11]
not listed: [4] | [5] | [9]
≥ 80%: all other assays above

Cc1ccc(-c2ncc3ccccc3n2)nc1Cc1ccccc1 [7/17]
≥ 80%: [8] | [7] | [3] | [4]

Cc1ccc(-c2ncc3ccccc3n2)nc1-c1ccc(F)c(F)c1 [3/89]
not listed: [4] | [9]
≥ 80%: all other assays above

COc1cccc(-c2cccc(-c3ncc4ccccc4n3)n2)c1F [2/60]
≥ 80%: [2] | [3] | [9] | [4] | [5]

Cc1ccc(-c2ncc3ccccc3n2)nc1-c1cccc(F)c1 [3/77]
≥ 80%: [8] | [3] | [4] | [5]

Cc1cc(F)ccc1-c1cccc(-c2ncc3ccccc3n2)n1 [2/55]
not listed: [8] | [9]
≥ 80%: all other assays above

Cc1ccc(-c2ncc3ccccc3n2)nc1-c1ccccc1 [3/71]
not listed: [6] | [7] | [9]
≥ 80%: all other assays above
